Here are results for 5 molecules from patent US12414994B2, “Compositions comprising lopinavir and treatment of conditions” (DOUGLAS PHARMACEUTICALS LIMITED, priority 2019, dated 2025).

Structures are written as SMILES. Like-named read-outs stand apart in the source and are kept apart here.

For series [1], the system named is acyclovir resistant HSV2 strain 132349 ACV-res. Description: Acyclovir resistant HSV2 replication assay in N-Tert keratinocytes. The class given is cell-based. As to the method: (§1) Cell Culture; Telomerase immortalised N-Tert human foreskin Keratinocyes were maintained in standard T-75 tissue culture flasks (Corning, USA) in 25 ml of Keratinocyte serum-free medium (KSFM) supplemented with L-glutamine, 0.2 ng/ml epidermal growth factors (EGF) and 25 μg/mL bovine pituitary extract (BPE) (Gibco, Invitrogen, UK). These were maintained at 37° C. in a humidified atmosphere of 5% CO2 and the medium was changed every 2 days as required. For routine sub-culture the medium was aspirated, cells washed with PBS (Gibco-Invitrogen, UK) and 2 ml of Cell Culture Grade Trypsin 0.05% solution with EDTA (Gibco-Invitrogen, UK) added to each flask which was incubated at 37° C./5% CO2 for 10 minutes. A 10 ml aliquot of KSFM plus 10% foetal bovine serum (FBS) (Gibco-Invitrogen, UK) was then added and the cells centrifuged at 6000 g for 6 minutes. The medium was aspirated and cells washed with 10 mls of PBS (Gibco Invitrogen, UK) followed by re-suspension in 10 mls of fresh KSFM and final a cell count carried out. HSV1 & 2 Replication Assays; T25 flasks (Corning, USA) were each seeded with 600,000 N-Tert cells in serum-free KSFM plus supplements and incubated at 37° C./5% CO2 until confluent (Approximately 72 hours). The medium was then aspirated and cells infected with either 25 μl aliquot of HSV2 strain HG52, 1 μl of HSV1 strain 17+ or a 5 μl aliquot of the acyclovir resistant HSV2 strain 132349 ACV-res (Public Health England, Porton Down, UK) in 0.5 ml of serum-free KSFM plus supplements for a period of 2 hours at 37° C./5% CO2. The volume of each HSV strain stock used was empirically determined as the amount required to produce pronounced cytopathic changes in infected control flasks over the time course of the experiment. A 9.5 ml aliquot of KSFM plus supplements was then added to each flask and cells infected with the HG52 or 17+ strains incubated overnight whereas cell infected with the 132349 ACV-res strain were incubated for 5 hours at 37° C./5% CO2. […] Where mixed APIs were used, concentrations were calculated as w/w ratios. […]

Another series relates to HSV2 strain HG52. As to the kind of experiment: HSV2 replication assay in N-Tert keratinocytes (anti-HSV immunostaining). The class given is cell-based. The note with it: for effect against HSV2 replication: FIG. 2B. As to the method:
(§2) Cell Culture; Telomerase immortalised N-Tert human foreskin Keratinocyes were maintained in standard T-75 tissue culture flasks (Corning, USA) in 25 ml of Keratinocyte serum-free medium (KSFM) supplemented with L-glutamine, 0.2 ng/ml epidermal growth factors (EGF) and 25 μg/mL bovine pituitary extract (BPE) (Gibco, Invitrogen, UK). These were maintained at 37° C. in a humidified atmosphere of 5% CO2 and the medium was changed every 2 days as required. For routine sub-culture the medium was aspirated, cells washed with PBS (Gibco-Invitrogen, UK) and 2 ml of Cell Culture Grade Trypsin 0.05% solution with EDTA (Gibco-Invitrogen, UK) added to each flask which was incubated at 37° C./5% CO2 for 10 minutes. A 10 ml aliquot of KSFM plus 10% foetal bovine serum (FBS) (Gibco-Invitrogen, UK) was then added and the cells centrifuged at 6000 g for 6 minutes. The medium was aspirated and cells washed with 10 mls of PBS (Gibco Invitrogen, UK) followed by re-suspension in 10 mls of fresh KSFM and final a cell count carried out. HSV1 & 2 Replication Assays; T25 flasks (Corning, USA) were each seeded with 600,000 N-Tert cells in serum-free KSFM plus supplements and incubated at 37° C./5% CO2 until confluent (Approximately 72 hours). The medium was then aspirated and cells infected with either 25 μl aliquot of HSV2 strain HG52, 1 μl of HSV1 strain 17+ or a 5 μl aliquot of the acyclovir resistant HSV2 strain 132349 ACV-res (Public Health England, Porton Down, UK) in 0.5 ml of serum-free KSFM plus supplements for a period of 2 hours at 37° C./5% CO2. The volume of each HSV strain stock used was empirically determined as the amount required to produce pronounced cytopathic changes in infected control flasks over the time course of the experiment. A 9.5 ml aliquot of KSFM plus supplements was then added to each flask and cells infected with the HG52 or 17+ strains incubated overnight whereas cell infected with the 132349 ACV-res strain were incubated for 5 hours at 37° C./5% CO2. Stock solutions of each active pharmaceutical ingredient (API) were freshly prepared every week from dry powder (Douglas Pharna, NZ) dissolved volumetrically in DMSO at 100 mM and stored at −20° C. Appropriate final dilutions of these API stocks solutions were made in KSFM plus supplements such that the same volume of DMSO (2 μl) was added to each infected flask. Where mixed APIs were used, concentrations were calculated as w/w ratios. API treated HSV2 HG52 infected cells were then incubated for 48 hours, HSV1 17+ infected cells were incubated for 8 hours and HSV-2 132349 ACV-res infected cells were incubated for 12 hours prior to harvesting for immunostaining. A concentration of 5 μM Acyclovir (VWR International, UK) was also added as a comparator to flasks infected with HSV-2 132349 ACV-res in order to verify the acyclovir resistant nature of the strain. […] Harvesting & Immunostaining; Growth medium was decanted from each flask and placed into 15 ml universal tubes (Corning, USA) and the cells rinsed with 1 ml of 1×PBS which was pooled with the growth medium. A 1 ml aliquot of NB Cell Culture Grade Trypsin 0.05% solution with EDTA was added to each T-25 flask and cells incubated at 37° C./5% CO2 for 10 minutes. A 1 ml aliquot of FBS was added to the decanted growth medium plus PBS from the previous step and 2 ml of this was then added to each flask to inactivate the trypsin. The trypsinised cells were then pooled with the decanted growth medium and an aliquot taken for analysis of cell viability using Via-1 cassette NC3000 cell cytometer assays (CheoMetec A/S, Denmark). The remaining cells were centrifuged at 6000 g for 5 minutes, the medium aspirated and the cells re-suspended and washed with 10 ml of PBS followed by re-centrifugation. Finally the cells were re-suspended in 70% of ice-cold ethanol, stored overnight at 4° C. and a volume containing 60,000 cells was aliquoted into 1.5 ml Eppendorf tubes and centrifuged for 5 minutes at 5000 rpm. […]

For another series, the system named is herpesvirus. As to conditions: Gantt et al. (2011) Table 1; cited from earlier work.
A further series concerns HSV1 strain 17+. As to the kind of experiment: HSV1 replication assay in N-Tert keratinocytes (anti-HSV immunostaining). The class given is cell-based. The note with it: for effect on HSV1 replication: pre-treatment virus incubation reduced by 2 hours, FIG. 5B; for effects on HSV1 replication: FIG. 4B. The method, then: as §2, with “trypsin.” for “trypsin. The trypsinised cells were then pooled with the decanted growth medium and an aliquot taken for analysis of cell viability using Via-1 cassette NC3000 cell cytometer assays (CheoMetec A/S, Denmark). The remaining cells were centrifuged at 6000 g for 5 minutes, the medium aspirated and the cells re-suspended and washed with 10 ml of PBS followed by re-centrifugation. Finally the cells were re-suspended in 70% of ice-cold ethanol, stored overnight at 4° C. and a volume containing 60,000 cells was aliquoted into 1.5 ml Eppendorf tubes and centrifuged for 5 minutes at 5000 rpm.”

For series [2] the following is noted: cited from earlier work.
For the next series, the system named is HSV1 17+ strain. As to conditions: Houston et al (2017) Table 2; cited from earlier work.
The test system of series [3] is labial or skin HSV lesions. The note with it: episodic topical application, cited from earlier work.
In another series the test system is HSV-2 132349 ACV-res. As to conditions: Houston et al (2017) Table 2; cited from earlier work.
For series [4], the system named is uninfected N-Tert keratinocytes. As to the kind of experiment: Cytotoxicity assay (Via-1 cassette viability). The note with it: human, 48 h. The class given is cell-based. As to the method: as §1

On to `Cc1cccc(C)c1OCC(=O)N[C@@H](Cc1ccccc1)[C@@H](O)C[C@H](Cc1ccccc1)NC(=O)[C@H](C(C)C)N1CCCNC1=O` (relative stereo) [lopinavir, [1S-[1R*(R*), 3R*, 4R*]]-N-[4-[(2,6-dimethylphenoxy0acetyl]amino]-3-hydroxy-5-phenyl-1-(phenylmethyl)pentyl]tetrahydro-alpha-(1-methylethyl)-2-oxo-1(2H)-pyrimidineacetamide], for which the “number of virus positive cells” value in [1] (10 μM, FIG. 6B (DMSO control 50%)) was determined as 10%; in series [1] (20 μM, FIG. 6B (DMSO control 50%)), 5%. Further, the “effect against HSV2 replication compared with nelfinavir” value with HSV2 strain HG52 (20 μM) is “more effective against HSV2 replication than either 2 or 5 μM nelfinavir”. The “HSV2 positive cells (anti-HSV antibody immunostaining images)” value in the series on HSV2 strain HG52 (20 μM, 48 hours, FIG. 1B) was “Very few HSV2 positive cells”. Besides, in the series with HSV2 strain HG52 (20 μM, 48 hours, N-Tert keratinocytes, FIG. 1A), the “cytopathic effects of HSV2 infection (phase contrast morphology)” value is “virtually no cytopathic effects”. Besides, the “percentage of virus positive cells (quantitative analysis of immune staining)” value in the series with HSV2 strain HG52 (20 μM, FIG. 1C) is listed as “marked reduction”. The “effect on herpesvirus replication” value in the series with herpesvirus is “ineffective”. Moreover, the “effect on HSV1 replication” value with HSV1 strain 17+ (20 μM) is on record as “by far the greatest activity”. Moreover, in [2], the solubility in water entry is listed as “virtually insoluble in water”.

Turning to `CC(C)c1nc(CN(C)C(=O)N[C@H](C(=O)N[C@@H](Cc2ccccc2)C[C@H](O)[C@H](Cc2ccccc2)NC(=O)OCc2cncs2)C(C)C)cs1` (relative stereo) [ritonavir, 10-Hydroxy-2-methyl-5-(1-methylethyl)-1-[2-(1-methylethyl)-4-thiazolyl]-3,6-dioxo-8,11bis(phenylmethyl)-2,4,7,12-tetraazatridecan-13-oic acid, 5-thiazolylmethylester, [5S-(5R*,8R*,10R8,11R*)]], the “effect on herpesvirus replication” value in the series on herpesvirus is “ineffective”.

For the molecule `Nc1nc2c(ncn2COCCO)c(=O)[nH]1` [Acyclovir, acyclovir], the “concentration that proved very effective” value in the series with HSV1 17+ strain is under 0.8 µM. Further, the “number of virus positive cells” value in series [1] (Acyclovir, FIG. 6B) is recorded as “did not, as expected reduce the number of virus positive cells”. Further, in series [3] (3-5% acyclovir cream), the “improvement of healing times” value is “approximately 10%”. Besides, the “concentration required for toxicity against this strain” value in the series with HSV-2 132349 ACV-res was over 100 µM.

As a reminder, the cell viability is a read-out of living cells in per cent, often relative to untreated cells. A high value points to less harm to the cells. Turning to `Cc1c(O)cccc1C(=O)N[C@@H](CSc1ccccc1)[C@H](O)CN1C[C@H]2CCCC[C@H]2C[C@H]1C(=O)NC(C)(C)C` [nelfinavir], in series [4], the “concentrations with significant toxic effects on eukaryotic cells” value is listed as “above 2 μM”. Also, the cell viability in series [4] (10 μM) is given as under 60%; in series [4] (20 μM) it was “about 40%”. For the same molecule, the “effect against HSV2 replication” value in the series on HSV2 strain HG52 (2 μM) is “less effective against HSV2 replication than 10 μM nelfinavir”; with HSV2 strain HG52 (5 μM), “less effective against HSV2 replication than 10 μM nelfinavir”; in the series with HSV2 strain HG52 (10 μM), “as effective as 20 μM 12:1 Lop/Rit”. The “effect on herpesvirus replication” value with herpesvirus was “inhibitory effect on viruses”. Also, the “effects on HSV1 replication” value with HSV1 strain 17+ (2 μM) and in the series on HSV1 strain 17+ (10 μM) was “very modest effects” each time. For the same molecule, the “effect on HSV1 replication” value in the series with HSV1 strain 17+ (2 μM) and with HSV1 strain 17+ (10 μM) was “no discernible effect” throughout.

As to `Nc1nc2c(ncn2CCC(CO)CO)c(=O)[nH]1` [penciclovir], the “improvement of healing times” value in series [3] (1% penciclovir cream) is listed as “approximately 10%”.
